Measurements published in patent publication US20230331781A1, “PAR4 DERIVED PEPTIDES, ANALOGS AND USES THEREOF” (Yissum Research Development Company of the Hebrew …, priority 2019, published 2023).
“Also recorded” adds a separate entry of the source. Numbered stars: 1 amine (or outer) side, 2 acyl side, 3 side chain; on linkers, the order of the positions; unused ones are H or OH. Bridge positions count the residues as written; N and C are the ends. Square brackets hold non-standard residues; d marks the D form. Ends that are not written are not given here. GlyBU(C4) = Gly building unit (N-alpha-functionalized Gly) carrying a C4 alkyl chain (n = m = 4), bridged through a urea group; CO = O=C([*:1])[*:2]

Legend:
HCT116 cells = assay: Xenograft tumor model, HCT116 cells inoculated subcutaneously in nude mice; format: in vivo; settings: s.c., 100 μM, 0.25 mg/30 gm, 3 times/week, from day of inoculation or 4 days later, terminated after 20 days
Method: HCT116 cells (1×10^6) were injected subcutaneously to nude mice. Pc(4-4) (100 μM; 0.25 mg/30 gm) was subcutaneously injected, either at the same day of tumor cell inoculation or 4 days later. The inhibitor was applied repeatedly 3 times/week for 3 weeks. Mice were weighted every 3 days and tumor size was measured. Mice were sacrificed after 21 days. This is a representative of three times performed experiments. […] Tumor volume measurements of HCT116 cells inoculated into nude mice. Tumors were weighed and measured for size at the indicated time points and tumor volume was calculated. Error bars show s.d.; * P<0.05; *** P<0.001; while ns are considered as not significant.
Another cell lines used in the experiment was HCT-116, an aggressive colon cancer cell line overexpressing oncogenes including PAR4.
Male athymic nude mice aged 6-7 weeks were pre-implanted subcutaneously with the relevant cells (1×10^6 cells): either with HCT-116 or with RKO/hPar4 cells.
The inhibitor was injected at the site of the tumor at the day of inoculation. In an additional group, mice implanted with HCT-116 were administered with the inhibitor at day 4 after inoculation. […]
Mice were monitored for tumor size by external caliber measurements (length and width) on days 7, 14, 22 and for up to 32 days, if tumor burden allowed. Tumor volume (V) was calculated by V=L×W^2×0.5, where L is length and W is width. […]

PAR2 and Akt = target: T1, PAR2 and Akt (Homo sapiens, UniProt P31749); assay: PAR2-Akt association, immunoprecipitation in HEK293 cells transfected with Par2 and SLIGKV activated; format: cell-based; settings: HEK 293 cells, flag-hPar2, SLIGKV 200 μM; 150 μM, 1 hr prior to activation; FIG. 11
T1 construct: FLAG; expressed in transfected cells; host or cells: HEK293
T1 sequence (P31749 whole entry): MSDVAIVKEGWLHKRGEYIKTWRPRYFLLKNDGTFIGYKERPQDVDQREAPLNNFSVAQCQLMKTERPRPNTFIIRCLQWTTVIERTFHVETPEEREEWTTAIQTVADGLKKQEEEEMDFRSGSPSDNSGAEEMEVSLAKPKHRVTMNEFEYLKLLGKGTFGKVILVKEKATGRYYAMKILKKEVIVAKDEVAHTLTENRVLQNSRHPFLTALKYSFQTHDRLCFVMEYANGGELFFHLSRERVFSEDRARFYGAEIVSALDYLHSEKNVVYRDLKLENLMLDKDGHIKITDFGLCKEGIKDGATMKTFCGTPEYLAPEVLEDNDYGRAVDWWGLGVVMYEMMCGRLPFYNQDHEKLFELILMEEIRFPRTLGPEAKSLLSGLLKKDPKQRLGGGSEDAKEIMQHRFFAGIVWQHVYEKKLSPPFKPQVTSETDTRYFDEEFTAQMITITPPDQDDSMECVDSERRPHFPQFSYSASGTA
Method: HEK293 cells were transiently transfected with Par2 followed by SLIGKV PAR2 activation in the presence and absence of PAR4 c(4-4) at 150 μM. IP of cell lysates following different time of activation was carried out using anti PAR2 abs. Detection of Akt was performed by anti Akt abs. β-actin serves as a control gene for loading.
Briefly, HEK 293 cells were transfected with 0.8 μg flag-hPar2 and serum starved overnight. PAR(4-4) in concentration of 150 μM was applied onto the cell monolayer for 1 hr prior to PAR2 activation (by the peptide SLIGKV—200 μM) for the indicated time periods (overall transfection period is 48 hrs).
The cells (HEK 293) were solubilized and lysed and protein cell lysates (400 μg) were used for immunoprecipitation analysis, as described in Example 4.

RKO/hPar4 tumors = assay: Pre-formed RKO/hPar4 tumors in nude mice; format: in vivo; settings: injection s.c. near tumor started 3 weeks post inoculation (~1 cm tumors), 5 mg/kg
Method: Tumors generated by the RKO/Par4 clone/s (1×10^6 cells, subcutaneously). Injections of the inhibitor Pc(4-4) have started 3 weeks post cell inoculation (5 mg/kg, every other day). FIG. 12B—levels of Par4 in stable clone/s of RKO cells. Error bars show s.d.; *** P<0.001. FIG. 12C—pre-formed tumors. Mice bearing tumors formed (˜1 cm) prior to the Pc(4-4) injection. FIG. 12D tumor volume (cm3). Tumors generated throughout the experimental period versus injections of Pc(4-4) initiated 3 weeks post cell inoculation. Each treatment group contained 7 mice. This is a representative of three times performed experiments. Error bars show s.d.; ** P<0.01.
In this experimental design, RKO/hPar4 clone/s (1×10^6 cells) were implanted in nude mice (Par4 levels in the clones) (FIG. 12A-12D). Tumors were slowly formed (during 3 weeks). At the time tumors were distinctly observed (˜1 cm length, FIG. 12C), the Pc(4-4) inhibitor was injected s.c. in the vicinity of the tumor site (3×week; 5 mg/kg). At the time the experiment was terminated large RKO/hPar4 tumors were observed. […] Activation of PAR4 leads to the phosphorylation of EGFR. AYPGKF activation of PAR4 leads to pTyr-EGFR. This was shown by co-transfection of HEK293 cells with hPar4 and egfr followed by AYPGKF PAR4 activation. Western blot detection of EGFR Tyr (Y)-phosphorylation (pY-EGFR), was carried-out by anti phospho-Tyr antibodies (FIG. 13A). […]

inhibition of PAR2-AKT association (IP) (PAR2 and Akt): efficiently inhibited
Substance: Pc(4-4): backbone cyclic analog of Formula I, m=n=4, ring size 30 atoms (S[GlyBU(C4)]EFRDK[GlyBU(C4)]; bridge 2-8 via CO; not fully specified; printed as SZ1EFRDKX3)
tumor growth / tumor size (HCT116 cells): significantly smaller tumors; also recorded: potently inhibits | tumor growth / tumor size (HCT116 cells; listed as PAR4 (4-4)): much smaller tumors | size of pre-formed tumors (RKO/hPar4 tumors): distinctly smaller tumors; also recorded: inhibits
